Ki data for 21 compounds are collected here from US6610689B2, “HIV protease inhibitors based on amino acid derivatives” (priority 2001, dated 2003).

pKi: −log10 of the molar value. Counter-ions that a name gives are not always drawn. Where only a bound is given, the exact number is not on record here.

For one assay, the target named is T1, HIV protease (Human immunodeficiency virus type 1 group M subtype B, UniProt P04585).
T1 construct: A third viral enzyme known as protease then cleaves the polyproteins
The assay can be described thus: Enzymatic Assay for Determining the Inhibition Constant (Ki) of Synthetic Compounds Targeting the HIV Protease (fluorometric FRET assay).
Details: not given
The assay is classed as biochemical. The text has this:
Enzymatic Assay for Determining the Inhibition Constant (Ki) of Synthetic Compounds Targeting the HIV Protease
This is a fluorometric assay based on the cleavage by protease of a substrate carrying a donor group (EDANS) and an acceptor group (DABCYL) on each side of the cleavage site, interacting together through fluorescence resonance energy transfer (FRET) as described by Matayoshi et al. (Science 247:[…], 1990).
After calculation of Vo and Vi, the inhibition constant (Ki) of the compound is determined using the equation of Henderson: [formula]
where Vo=the enzyme's initial velocity
Vi=the enzyme velocity in the presence of the inhibitory compound,
[I]=inhlibitor concentration, [S]=substrate concentration,
Km=Michaelis-Menten constant and Kiapp=apparent Ki
Graphs are traced and the Ki determined using GraphPad Prism software v. 3.0.
Broadly, the pKi is the negative decadic logarithm of the Ki, by convention in mol/L. `Cc1ccc(S(=O)(=O)N(CC(C)C)[C@H](CO)CCCCNC(=O)[C@H](Cc2ccccc2)NC(=O)C(C)(C)C)cc1` [Example 119, (2S,2′S) 2-N-Isobutyl-2-N-(4-methylbenzenesulfonyl)-6-N-(N′α-pivaloyl-S-phenylalanyl)-2,6-diaminohexanol]: the pKi was 8.41.

`Cc1ccc(S(=O)(=O)N(CC(C)C)[C@H](CO)CCCCNC(=O)[C@H](Cc2ccccn2)NC(=O)OC(C)(C)C)cc1` [Example 134, (2S,2′S) 2-N-Isobutyl-2-N-(4-methylbenzenesulfonyl)-6-N-(N′α-tert-butoxycarbonyl-S-2-pyridylalanyl)-2,6-diaminohexanol] showed a pKi of 7.52.

`COc1ccc(CC(=O)N[C@@H](Cc2c[nH]c3ccccc23)C(=O)NCCCC[C@@H](C(=O)O)N(CC(C)C)S(=O)(=O)c2ccc(C)cc2)cc1` [Example 164, Nα-Isobutyl-Nα-(4-methylbenzenesulfonyl)-Nε-[N′α-(4-methoxyphenylacetyl)-L-tryptophanyl]-L-lysine] had a pKi of 9.49.

`Cc1ccc(S(=O)(=O)N(CC(C)C)[C@@H](CCCCNC(=O)[C@H](Cc2ccccc2)NS(=O)(=O)c2ccc(F)cc2)C(=O)O)cc1` [Example 18, Nα-Isobutyl-Nα-(4-methylbenzenesulfonyl)-Nε-[N′α-(4-fluorobenzenesulfonyl)-L-phenylalanyl]-L-lysine] showed a pKi of 8.08.

Compound `Cc1ccc(S(=O)(=O)N(CC(C)C)[C@@H](CCCCNC(=O)[C@H](CC(N)=O)NC(=O)OCc2ccccc2)C(=O)O)cc1` [Example 48, Nα-Isobutyl-Nα-(4-Methylbenzenesulfonyl)-Nε-(N′α-benzyloxycarbonyl-L-asparagyl)-L-lysine] showed a pKi of 6.94.

As for `Cc1ccc(S(=O)(=O)N(CC(C)C)[C@H](CO)CCCCNC(=O)[C@H](Cc2ccc(C(C)(C)C)cc2)NC(=O)OC(C)(C)C)cc1` [Example 142, (2S,2′S) 2-N-Isobutyl-2-N-(4-methylbenzenesulfonyl)-6-N-(N′α-tert-butoxycarbonyl-S-4-tert-butylphenylalanyl)-2,6-diaminohexanol], the pKi was 7.03.

With `CC(C)CN([C@H](CO)CCCCNC(=O)[C@H](Cc1ccccc1)NC(=O)N1CCOCC1)S(=O)(=O)c1ccc(N)cc1` [Example 180, (2S,2′S) 2-N-(4-Aminobenzenesulfonyl)-2-N-isobutyl-6-N-[N′α-(4-morpholinecarbonyl)-S-phenylalanyl]-2,6-diaminohexanol], the pKi is 8.62.

Take `CC(C)COC(=O)N[C@@H](Cc1c[nH]c2ccccc12)C(=O)NCCCC[C@@H](CO)N(CC(C)C)S(=O)(=O)c1ccc(N)cc1` [Example 193, (2S,2′S) 2-N-(4-Aminobenzenesulfonyl)-2-N-isobutyl-6-N-(N′α-isobutoxycarbonyl-S-tryptophanyl)-2,6-diaminohexanol]: the pKi is 8.39.

`CC(C)CN([C@H](CO)CCCCNC(=O)[C@H](Cc1c[nH]c2ccccc12)NS(=O)(=O)c1cccs1)S(=O)(=O)c1ccc(N)cc1` [Example 166, (2S,2′S) 2-N-(4-Aminobenzenesulfonyl)-2-N-isobutyl-6-N-[N′α-(2-thiophenesulfonyl)-S-tryptophanyl]-2,6-diaminohexanol] had a pKi of 9.00.

Consider `Cc1ccc(S(=O)(=O)N(CC(C)C)[C@H](CO)CCCCNC(=O)[C@H](CC#N)NS(=O)(=O)c2ccccc2)cc1` [Example 188, (2S,2′S) 2-N-Isobutyl-2-N-(4-methylbenzenesulfonyl)-6-N-(N′α-benzenesulfonyl-S-cyanoalanyl)-2,6-diaminohexanol], for which the pKi was 7.10.

For the compound `Cc1ccc(S(=O)(=O)N(CC(C)C)[C@@H](CCCCNC(=O)CNc2cccnc2)C(=O)O)cc1` [Example 106, Nα-Isobutyl-Nα-(4-methylbenzenesulfonyl)-Nε-[N′α-(3-pyridyl)glycyl]-L-lysine], the pKi was under 6.52.

Turning to `Cc1ccc(S(=O)(=O)N(CC(C)C)[C@@H](CCCCNC(=O)[C@H](Cc2ccccc2)NS(=O)(=O)c2ccc(Cl)cc2)C(=O)O)cc1` [Example 9, Nα-Isobutyl-Nα-(4-methylbenzenesulfonyl)-Nε-[N′α-(4-chlorobenzenesulfonyl)-L-phenylalanyl]-L-lysine], the pKi is 8.17.

Take `Cc1ccc(S(=O)(=O)N[C@@H](Cc2ccccc2)C(=O)NCCCC[C@@H](C(=O)O)N(CC(C)C)S(=O)(=O)c2cccs2)cc1` [Example 54, Nα-Isobutyl-Nα-(2-thiophenesulfonyl)-Nε-[N′α-(4-methylbenzenesulfonyl)-L-phenylalanyl]-L-lysine]: the pKi was 7.77.

Consider `COc1ccc(S(=O)(=O)N(CC(C)C)[C@H](CO)CCCCNC(=O)[C@H](Cc2c[nH]c3ccccc23)NC(=O)C(C)(C)C)cc1` [Example 148, (2S,2′S) 2-N-Isobutyl-2-N-(4-methoxybenzenesulfonyl)-6-N-(N′α-pivaloyl-S-tryptophanyl)-2,6-diaminohexanol], for which the pKi is 8.72.

Consider `Cc1ccc(S(=O)(=O)N(CC(C)C)[C@@H](CCCCNC(=O)[C@H](Cc2ccccc2)NS(=O)(=O)c2cccs2)C(=O)NCCO)cc1` [Example 60, Nα-Isobutyl-Nα-(4-methylbenzenesulfonyl)-Nε-[N′α-(2-thiophenesulfonyl)-L-phenylalanyl]-L-lysine Ethanolamide], for which the pKi is under 6.52.

For the compound `Cc1ccc(S(=O)(=O)N[C@@H](Cc2c[nH]c3ccccc23)C(=S)NCCCC[C@@H](C(=O)O)N(CC(C)C)S(=O)(=O)c2ccc(C)cc2)cc1` [Example 73, Nα-Isobutyl-Nα-(4-methylbenzenesulfonyl)-Nε-[N′α-(4-methylbenzenesulfonyl)-L-thiotryptophanyl]-L-lysine], the pKi was 7.85.

Still in this assay, the particulars now being: Anti-protease activity of Ne-amino acid substituted L-lysine derivatives and analogs of formula I; read-out: Ki.
As to `Cc1ccc(S(=O)(=O)N(CC(C)C)[C@@H](CCCCNC(=O)[C@H](Cc2c[nH]c3ccccc23)NS(=O)(=O)c2ccc(N)cc2)C(=O)O)cc1` [Example 12, Nα-Isobutyl-Nα-(4-methylbenzenesulfonyl)-Nε-[N′α-(4-aminobenzenesulfonyl)-L-tryptophanyl]-L-lysine], the pKi was 9.51.

Take `Cc1ccc(S(=O)(=O)N(CC(C)C)[C@@H](CCCCNC(=O)[C@H](CO)NC(=O)OCC2c3ccccc3-c3ccccc32)C(=O)O)cc1` [Example 36, Nα-Isobutyl-Nα-(4-methylbenzenesulfonyl)-Nε-[N′α-(9-fluorenylmethoxycarbonyl)-L-seryl]-L-lysine]: the pKi is 6.79.

Staying with this assay, now noted: Table 1, compounds of formula I; read-out: Ki (anti-protease activity).
Regarding `COc1ccc(S(=O)(=O)N(CC2CCCC2)[C@H](CO)CCCCNC(=O)[C@@H](N)Cc2c[nH]c3ccccc23)cc1` [Example 152, (2S,2′S) 2-N-Cyclopentylmethyl-2-N-(4-methoxybenzenesulfonyl)-6-N-(S-tryptophanyl)-2,6-diaminohexanol Trifluoroacetic Acid Salt], the pKi is 7.92.

For `Cc1ccc(S(=O)(=O)N(CC(C)C)[C@@H](CCCCNC(=O)CNCCN2CCCCC2)C(=O)O)cc1` [Example 110, Nα-Isobutyl-Nα-(4-methylbenzenesulfonyl)-Nε-[N′α-(piperidinyl-N-ethyl)glycyl]-L-lysine Trifluoroacetic Acid Salt], the negative logarithm of the Ki (pKi) was under 6.52.

In the case of `Cc1ccc(S(=O)(=O)N(CC(C)C)[C@@H](CCCCNC(=O)CNc2ccccn2)C(=O)O)cc1` [Example 108, Nα-Isobutyl-Nα-(4-methylbenzenesulfonyl)-Nε-[N′α-(2-pyridyl)glycyl]-L-lysine], the pKi was under 6.52.
